Reference: publication PMC5458052 (Nature Communications, 2017)
Where “and” joins values, the source holds several entries; their conditions need not be identical. Identical values can stand only once. Entries after “also recorded” stand apart in the source; their conditions may differ. Like-named read-outs stand apart in the source and are kept apart here.

How the values were obtained:
[1] = system: P. falciparum K13 wild-type and mutant lines (Cam3.II, V1/S); experiment: microbe, parasite or virus in culture; format: cell-based, Plasmodium falciparum; details: read-out: IC50 Mean
[2] = In vitro intrinsic clearance, human liver microsomes (Chem Partners); format: in vitro ADME; details: human (H) liver microsomes
[3] = Rat PK iv 1 mg/kg (Chem Partners); details: in vivo
[4] = Mouse micronucleus test; details: in vivo
[5] = Single rising oral dose MTD study in rats; details: both sexes, Sprague-Dawley, rat, in vivo; single oral administration; read-out: maximum-tolerated dose (MTD)
[6] = system: P. falciparum 3D7; experiment: In vitro antimalarial activity, drug sensitivity testing (3D7); format: cell-based; details: Plasmodium falciparum
[7] = in vivo; details: Sprague-Dawley, rat; for AUC(0-t) / Cmax: po
[8] = Metabolic stability and metabolite profile in human liver microsomes; details: for Microsome-Predicted EH: human liver microsomes
[9] = system: P. vivax clinical field isolates; experiment: microbe, parasite or virus in culture; format: cell-based; details: Plasmodium vivax, read-out: Median IC50
[10] = molecular target: T1, cardiac IKr (hERG) channel (Homo sapiens, UniProt Q12809); experiment: hERG electrophysiology assay (IonWorks HT, CHO cells); format: cell-based
T1 construct: expressed in transfected cells; host or cells: CHO cells

[11] = system: P. falciparum strain 3D7^0087/N9; experiment: Humanized SCID mouse model of P. falciparum; format: in vivo, Plasmodium falciparum
[12] = molecular target: CYP2C19 (Homo sapiens, UniProt P33261); experiment: Cytochrome P450 inhibition CYP2C19; format: in vitro ADME
[13] = Human PK prediction by allometric scaling; details: allometric scaling from rat parameters
[14] = rat, in vivo
[15] = molecular target: Nav1.5 channel (Homo sapiens, UniProt Q14524); experiment: Nav1.5 electrophysiology assay (IonWorks HT, CHO cells); format: cell-based; details: at >100 μM
[16] = Metabolic stability and metabolite profile in mouse liver microsomes; format: in vitro ADME
[17] = system: African variant G6PD deficient human red blood cells (huRBC); details: 7 days post-treatment; E209 up to 50 mg kg^−1 day^−1 for 3 days; PQ 25 mg/kg/day for 3 days
[18] = system: P. falciparum lab lines FC27 and K1; experiment: microbe, parasite or virus in culture; format: cell-based; details: Plasmodium falciparum, median of 3 independent experiments
[19] = system: P. falciparum strains (sensitive and resistant); experiment: microbe, parasite or virus in culture; format: cell-based; details: Plasmodium falciparum
[20] = system: major human CYP450s (all isoforms together); experiment: in vitro
[21] = molecular target: CYP2D6 (Homo sapiens, UniProt P10635); experiment: Cytochrome P450 inhibition CYP2D6; format: in vitro ADME
[22] = Dog PK, compartmental analysis
[23] = molecular target: T2, Sigma 1 receptors (Homo sapiens, UniProt Q99720); experiment: CEREP radioligand binding screen, Sigma 1
T2 construct: CEREP

[24] = In vitro intrinsic clearance, rat liver microsomes (Chem Partners); format: in vitro ADME; details: rat (R) liver microsomes
[25] = in vivo; details: rat, iv, 1 mg/kg
[26] = molecular target: CYP2C9 (Homo sapiens, UniProt P11712); experiment: Cytochrome P450 inhibition CYP2C9
[27] = Metabolic stability in dog liver microsomes; format: in vitro ADME; details: substrate 1 µM
[28] = system: P. berghei; design: species or system Plasmodium berghei
[29] = Rat blood stability in vitro; details: male, Sprague Dawley, freshly collected whole blood
[30] = system: Late stage gametocytes; oocysts in Anopheles stephensi mosquitoes; experiment: whole plant or invertebrate; format: cell-based
[31] = molecular target: Cav1.2 channel (Homo sapiens, UniProt Q13936); experiment: Cav1.2 electrophysiology assay (IonWorks HT, CHO cells); format: cell-based; details: at >100 μM
[32] = in vitro; details: human, microsomes
[33] = system: P. falciparum clinical field isolates; experiment: microbe, parasite or virus in culture; format: cell-based; details: Plasmodium falciparum, read-out: Median IC50
[34] = molecular target: CYP1A2 (Homo sapiens, UniProt P05177); experiment: Cytochrome P450 inhibition CYP1A2
Chain of CYP1A2 (P05177 whole entry): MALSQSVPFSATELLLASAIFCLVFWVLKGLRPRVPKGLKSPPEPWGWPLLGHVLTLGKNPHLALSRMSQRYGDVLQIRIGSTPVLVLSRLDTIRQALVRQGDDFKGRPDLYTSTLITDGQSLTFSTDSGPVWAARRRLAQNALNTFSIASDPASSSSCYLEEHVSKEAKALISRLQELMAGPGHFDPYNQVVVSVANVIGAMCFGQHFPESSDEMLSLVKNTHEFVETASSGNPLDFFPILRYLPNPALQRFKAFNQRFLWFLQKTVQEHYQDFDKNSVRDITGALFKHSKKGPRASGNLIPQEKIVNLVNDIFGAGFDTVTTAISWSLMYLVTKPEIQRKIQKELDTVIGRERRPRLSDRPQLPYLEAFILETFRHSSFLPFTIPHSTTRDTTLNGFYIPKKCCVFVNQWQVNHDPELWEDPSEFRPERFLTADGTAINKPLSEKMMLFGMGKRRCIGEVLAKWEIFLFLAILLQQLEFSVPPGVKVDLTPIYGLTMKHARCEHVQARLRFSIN

Chain of Nav1.5 channel (Q14524 whole entry): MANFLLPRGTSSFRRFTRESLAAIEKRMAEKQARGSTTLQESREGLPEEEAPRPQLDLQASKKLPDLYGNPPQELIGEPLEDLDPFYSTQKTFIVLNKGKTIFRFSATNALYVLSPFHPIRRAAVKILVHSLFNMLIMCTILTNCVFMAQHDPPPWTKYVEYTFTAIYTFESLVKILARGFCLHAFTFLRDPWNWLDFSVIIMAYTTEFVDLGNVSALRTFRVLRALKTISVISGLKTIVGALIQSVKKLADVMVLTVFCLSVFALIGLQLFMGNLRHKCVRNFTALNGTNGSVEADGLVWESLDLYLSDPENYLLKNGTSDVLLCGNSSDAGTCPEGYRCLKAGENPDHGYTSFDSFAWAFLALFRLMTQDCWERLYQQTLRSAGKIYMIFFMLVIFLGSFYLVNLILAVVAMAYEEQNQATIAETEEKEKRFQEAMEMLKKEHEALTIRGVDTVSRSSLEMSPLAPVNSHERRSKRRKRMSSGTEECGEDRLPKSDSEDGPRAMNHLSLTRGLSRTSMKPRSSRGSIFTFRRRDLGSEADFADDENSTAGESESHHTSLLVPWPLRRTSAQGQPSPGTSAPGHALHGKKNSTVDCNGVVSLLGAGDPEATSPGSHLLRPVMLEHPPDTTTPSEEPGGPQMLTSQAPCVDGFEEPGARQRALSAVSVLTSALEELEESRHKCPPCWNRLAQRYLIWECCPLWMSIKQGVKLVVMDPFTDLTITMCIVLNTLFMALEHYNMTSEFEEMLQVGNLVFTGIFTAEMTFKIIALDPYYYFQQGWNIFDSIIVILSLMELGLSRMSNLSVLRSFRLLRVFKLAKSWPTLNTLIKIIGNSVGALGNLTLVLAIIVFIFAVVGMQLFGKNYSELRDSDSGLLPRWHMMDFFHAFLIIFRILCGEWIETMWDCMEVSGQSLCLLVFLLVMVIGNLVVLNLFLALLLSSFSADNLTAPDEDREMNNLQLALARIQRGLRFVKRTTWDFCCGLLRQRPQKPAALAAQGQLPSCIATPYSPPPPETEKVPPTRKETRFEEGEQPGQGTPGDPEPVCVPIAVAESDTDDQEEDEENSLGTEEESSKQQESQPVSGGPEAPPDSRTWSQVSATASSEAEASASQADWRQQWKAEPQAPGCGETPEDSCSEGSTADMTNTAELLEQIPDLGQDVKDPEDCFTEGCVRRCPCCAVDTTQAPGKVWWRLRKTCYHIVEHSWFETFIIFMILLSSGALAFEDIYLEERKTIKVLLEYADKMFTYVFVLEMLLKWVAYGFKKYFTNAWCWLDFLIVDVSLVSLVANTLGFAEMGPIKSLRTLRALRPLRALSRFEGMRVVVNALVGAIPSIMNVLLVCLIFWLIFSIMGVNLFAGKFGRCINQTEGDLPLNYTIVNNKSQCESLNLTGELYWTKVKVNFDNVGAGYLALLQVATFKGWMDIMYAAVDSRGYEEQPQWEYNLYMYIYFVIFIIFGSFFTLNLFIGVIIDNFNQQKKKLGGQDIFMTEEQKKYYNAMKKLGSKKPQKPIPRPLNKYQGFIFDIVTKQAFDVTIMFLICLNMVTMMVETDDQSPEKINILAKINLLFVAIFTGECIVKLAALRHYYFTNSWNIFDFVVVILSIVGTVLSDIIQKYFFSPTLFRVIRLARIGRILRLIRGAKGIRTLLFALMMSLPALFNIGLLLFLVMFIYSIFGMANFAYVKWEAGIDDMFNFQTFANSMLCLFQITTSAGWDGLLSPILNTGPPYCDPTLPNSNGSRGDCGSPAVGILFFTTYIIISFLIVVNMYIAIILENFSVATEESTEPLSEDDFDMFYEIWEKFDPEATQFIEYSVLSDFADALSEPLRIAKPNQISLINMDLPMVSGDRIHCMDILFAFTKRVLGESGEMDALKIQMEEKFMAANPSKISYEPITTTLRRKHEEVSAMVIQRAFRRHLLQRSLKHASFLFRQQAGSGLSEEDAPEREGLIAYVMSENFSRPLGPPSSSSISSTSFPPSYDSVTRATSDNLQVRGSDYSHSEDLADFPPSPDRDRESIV
Chain of CYP2C19 (P33261 whole entry): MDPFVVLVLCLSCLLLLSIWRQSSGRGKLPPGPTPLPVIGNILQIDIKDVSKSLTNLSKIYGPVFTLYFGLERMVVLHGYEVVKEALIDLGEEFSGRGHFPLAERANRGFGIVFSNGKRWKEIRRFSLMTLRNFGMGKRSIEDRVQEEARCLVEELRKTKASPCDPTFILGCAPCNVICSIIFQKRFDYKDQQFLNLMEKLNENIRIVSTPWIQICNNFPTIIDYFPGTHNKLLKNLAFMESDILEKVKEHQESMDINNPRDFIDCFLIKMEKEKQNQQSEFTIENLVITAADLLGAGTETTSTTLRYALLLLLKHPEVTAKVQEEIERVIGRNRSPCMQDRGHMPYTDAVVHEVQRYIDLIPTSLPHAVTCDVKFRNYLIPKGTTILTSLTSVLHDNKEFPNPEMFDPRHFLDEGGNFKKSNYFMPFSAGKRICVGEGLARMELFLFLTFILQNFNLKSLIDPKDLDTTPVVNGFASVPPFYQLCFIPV
T2 sequence (Q99720 whole entry): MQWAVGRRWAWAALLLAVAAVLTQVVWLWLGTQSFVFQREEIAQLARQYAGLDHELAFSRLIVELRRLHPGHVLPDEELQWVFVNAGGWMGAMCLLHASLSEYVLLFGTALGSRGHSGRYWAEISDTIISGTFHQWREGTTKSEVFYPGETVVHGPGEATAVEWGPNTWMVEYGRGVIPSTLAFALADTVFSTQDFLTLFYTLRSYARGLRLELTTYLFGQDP
Chain of CYP2C9 (P11712 whole entry): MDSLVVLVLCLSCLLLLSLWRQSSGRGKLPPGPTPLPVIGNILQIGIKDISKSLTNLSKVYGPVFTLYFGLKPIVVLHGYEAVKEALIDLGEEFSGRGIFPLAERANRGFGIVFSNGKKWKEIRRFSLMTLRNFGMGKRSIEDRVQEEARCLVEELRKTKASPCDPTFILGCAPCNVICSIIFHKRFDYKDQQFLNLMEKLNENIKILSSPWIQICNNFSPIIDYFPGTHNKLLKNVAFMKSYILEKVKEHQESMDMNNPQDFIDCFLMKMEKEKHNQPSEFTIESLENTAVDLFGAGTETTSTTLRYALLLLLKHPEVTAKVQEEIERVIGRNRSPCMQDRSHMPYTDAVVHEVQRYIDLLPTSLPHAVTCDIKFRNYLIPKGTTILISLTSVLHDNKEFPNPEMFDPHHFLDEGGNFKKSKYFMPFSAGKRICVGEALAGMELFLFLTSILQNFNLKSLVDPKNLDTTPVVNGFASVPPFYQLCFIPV
T1 sequence (Q12809 whole entry): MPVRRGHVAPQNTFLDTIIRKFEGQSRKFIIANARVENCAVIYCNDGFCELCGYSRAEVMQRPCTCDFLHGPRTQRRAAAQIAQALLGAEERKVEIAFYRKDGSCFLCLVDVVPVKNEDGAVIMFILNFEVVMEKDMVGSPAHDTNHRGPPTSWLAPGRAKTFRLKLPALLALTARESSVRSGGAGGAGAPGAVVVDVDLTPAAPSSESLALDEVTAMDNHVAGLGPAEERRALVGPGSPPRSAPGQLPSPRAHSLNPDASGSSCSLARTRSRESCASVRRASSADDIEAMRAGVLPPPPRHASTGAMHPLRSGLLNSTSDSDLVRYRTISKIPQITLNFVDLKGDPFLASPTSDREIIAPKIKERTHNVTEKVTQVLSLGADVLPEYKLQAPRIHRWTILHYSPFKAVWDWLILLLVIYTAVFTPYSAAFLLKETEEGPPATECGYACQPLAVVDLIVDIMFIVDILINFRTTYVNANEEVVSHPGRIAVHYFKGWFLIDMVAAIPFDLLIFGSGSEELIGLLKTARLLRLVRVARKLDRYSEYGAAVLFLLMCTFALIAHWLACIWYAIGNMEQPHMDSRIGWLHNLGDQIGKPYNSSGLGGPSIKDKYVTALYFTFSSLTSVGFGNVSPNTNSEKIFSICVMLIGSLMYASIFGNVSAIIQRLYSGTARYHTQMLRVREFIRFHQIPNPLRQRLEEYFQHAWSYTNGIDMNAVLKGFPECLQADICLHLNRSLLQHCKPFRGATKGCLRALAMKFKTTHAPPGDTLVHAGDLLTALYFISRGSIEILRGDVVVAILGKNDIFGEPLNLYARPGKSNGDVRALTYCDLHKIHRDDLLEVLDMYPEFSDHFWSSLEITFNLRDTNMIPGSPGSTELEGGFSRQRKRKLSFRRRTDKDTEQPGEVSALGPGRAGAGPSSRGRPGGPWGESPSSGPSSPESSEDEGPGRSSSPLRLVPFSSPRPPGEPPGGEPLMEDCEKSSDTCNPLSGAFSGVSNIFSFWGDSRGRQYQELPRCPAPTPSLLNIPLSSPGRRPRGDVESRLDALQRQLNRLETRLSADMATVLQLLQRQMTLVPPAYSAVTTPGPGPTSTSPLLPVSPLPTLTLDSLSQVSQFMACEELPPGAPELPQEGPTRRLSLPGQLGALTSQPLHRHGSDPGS

FC1CCN(CCOc2ccc(C3CCC4(CC3)OOC3(OO4)C4CC5CC(C4)CC3C5)cc2)CC1 (stereo not shown) [Compound E209]
IC50 ([1]; Plasmodium falciparum, 72 h): 8.71 nM
IC50 [1]: 7.6 nM and 7.51 nM and 8.46 nM and 7.76 nM and 7.81 nM
CLint scaled [2]: 58 mL/min/kg
clearance [3]: 5.1 mL/min/kg
mouse micronucleus test result [4]: negative
MTD [5]: 300 mg/kg
IC50 [6]: 5.1 ± 0.81 nM
NOAEL ([7]; female): 50 mg/kg/day
AUC(0-t) ([7]; female, 50 mg/kg): 14800 ng·h/mL
Cmax ([7]; female, 50 mg/kg): 1070 ng/mL
NOAEL ([7]; male): 100 mg/kg/day
AUC(0-t) ([7]; male, 100 mg/kg): 19600 ng·h/mL
Cmax ([7]; male, 100 mg/kg): 1200 ng/mL
% Substrate Consumed ([8]; human liver microsomes with NADPH, 60 minutes): 45%
Microsome-Predicted EH ([8]; substrate 1 µM): 0.50
Microsome-Predicted EH ([8]; substrate 5 µM): 0.48
half-life at 1 µM ([8]; human, liver microsomes): 1.13 h
half-life at 5 µM ([8]; human, liver microsomes): 1.27 h
microsomal CLint at 1 µM ([8]; human, liver microsomes): 25 µL/min/mg
IC50 [9]: 10.5 nM
IC50 [10]: > 3500 nM
AUC ED90 ([11]; single oral dose): 1.2 µg·h/mL
parasite clearance ([11]; single oral dose 30 mg kg^−1): Complete parasite clearance; also recorded: maximum parasite clearance
ED90 ([11]; single oral dose, calculated): 11.6 mg/kg
IC50 [12]: > 20000 nM
Absorption rate constant Ka [13]: 0.31 ^† h^−1
Central clearance, CL [13]: 0.41 l^ h^−1 kg^−1
Inter-compartmental clearance 1, Q1 [13]: 7.5 mL/min/kg
Inter-compartmental clearance 2, Q2 [13]: 0.333 mL/min/kg
finding at 100 mg kg^−1 [14]: body weight loss
tolerability [14]: not tolerated
inhibitory activity [15]: no inhibitory activity
% Substrate Consumed ([16]; mouse liver microsomes with NADPH, 60 minutes): 44%
Microsome-Predicted EH ([16]; mouse liver microsomes, substrate 1 µM): 0.22
half-life at 1 µM ([16]; mouse liver microsomes, substrate 1 µM, read-out: Degradation half-life): 2.2 h
microsomal CLint at 1 µM ([16]; mouse liver microsomes, substrate 1 µM, read-out: In vitro CLint): 13 µL/min/mg
Microsome-Predicted EH ([16]; mouse liver microsomes, substrate 5 µM): 0.25
half-life at 5 µM ([16]; mouse liver microsomes, substrate 5 µM, read-out: Degradation half-life): 2.48 h
microsomal CLint at 5 µM ([16]; mouse liver microsomes, substrate 5 µM, read-out: In vitro CLint): 17 µL/min/mg
loss of huRBC [17]: did not show a significant drug-dependent loss of huRBC
IC50 ([18]; K1, FC27 (CQ S) lab line): 20.7 nM
IC50 ([18]; K1, K1 (CQ R) lab line): 31.8 nM
IC50 ([19]; DD2, strain Dd2 (chloroquine resistant), mean ± SD n=3): 7.7 ± 1.5 nM
IC50 ([19]; HB3, strain HB3 (chloroquine sensitive), mean ± SD n=3): 4.2 ± 0.8 nM
IC50 ([19]; NF54, strain NF54 (chloroquine sensitive), mean ± SD n=3): 5.2 ± 1 nM
IC50 ([19]; TM90C2B, strain TM90C2B (chloroquine resistant), mean ± SD n=3): 7.3 ± 1.4 nM
IC50 ([19]; read-out: mean IC50 range, panel of 10 sensitive and multidrug-resistant P. falciparum isolates): 2.9 to 14 nM
IC50 ([19]; strain 7G8 (chloroquine resistant), mean ± SD n=3): 2.9 ± 0.6 nM
IC50 ([19]; strain D6 (chloroquine sensitive), mean ± SD n=3): 8.5 ± 1.6 nM
IC50 ([19]; strain FCB (chloroquine resistant), mean ± SD n=3): 14 ± 2.7 nM
IC50 ([19]; strain K1 (chloroquine resistant), mean ± SD n=3): 4.2 ± 0.8 nM
IC50 ([19]; strain V1/S (chloroquine resistant), mean ± SD n=3): 4.2 ± 0.8 nM
IC50 [20]: > 20000 nM
IC50 [21]: > 20000 nM
Absorption rate constant Ka ([22]; PO 5 mg kg^−1): 0.33 h⁻¹
bioavailability ([22]; male, Beagle, plasma, oral, 5 mg kg^−1): 40%
clearance ([22]; male, Beagle, plasma, other: intravenous and oral, fitted together): 18.3 mL/min/kg
IC50 [23]: ~200 nM
CLint scaled [24]: 70 mL/min/kg
half-life [25]: 4 h
IC50 [26]: > 20000 nM
Microsome-Predicted EH ([27]; n=1): 0.38
half-life at 1 µM ([27]; n=1, read-out: Degradation half-life): 2.88 h
microsomal CLint at 1 µM ([27]; n=1, read-out: In vitro CLint): 10 µL/min/mg
In vivo (Pb) MSD (days) at 1 x 30 mg/kg [28]: 26.3 days and 25.0 (15, 30, 30) (2 cures) days
cure rate ([28]; in vivo): 66%
half-life at 1 µM [29]: 13 h
transmission-blocking activity (percentage of mosquitoes with no observed oocysts) [30]: ~60% and 90%
IC50 ([30]; Anopheles stephensi, read-out: IC50 (reduction in oocyst mean intensity)): 14.5 nM
inhibitory activity [31]: no inhibitory activity
microsomal CLint [32]: 23 µL/min/mg
IC50 [33]: 15.7 nM
IC50 [34]: > 20000 nM
